Target: hPAD4 enzyme (Homo sapiens (Human), UniProt Q9UM07)
Assay: RFMS2 assay (RapidFire mass spectrometry, TSTGGRQGSHH peptide substrate)
Assay type: biochemical
Details: 35 nM recombinant human PAD4, 500 μM TSTGGRQGSHH peptide, 30 minutes at room temperature; read-out: RFMS 2 IC50
Procedure: Stock compounds were dissolved and stored in 100% DMSO. Compound solutions were prepared via serial dilution at 3-fold intervals in DMSO with top compound concentration at 20 μM in each assay. 0.25 μl of compound solution was transferred from the compound plate to the assay plate by using an acoustic dispenser.
• Total reaction volume: 25 μl • Assay buffer: […] pH 7.4, 200 mM NaCl, 2 mM CaCl2, 5 mM DTT • 35 nM recombinant human PAD4 • 500 μM TSTGGRQGSHH peptide • 1.2% DMSO • Stop solution: 10% formic acid
Reaction mixtures were incubated at room temperature for 30 minutes. 10 μl each of the reaction mixtures was then mixed with 40 μl of 10% formic acid in a microtiter plate. The plate was frozen at −80° C. before shipping out on dry ice for RapidFire mass spectroscopy analysis.
Thawed samples were loaded onto the Rapid Fire 300 system (Agilent) wherein they were first sipped for 250 ms and then loaded onto a Agilent “C” (C18) cartridge using a mobile phase of water containing 0.09% formic acid/0.01% trifluoroacetic acid for 3000 ms desalting flowing at a rate of 1.5 ml/min. Once the samples were loaded and washed, a mobile phase of acetonitrile containing 0.09% formic acid/0.01% trifluoroacetic acid was used to elute the samples directly onto a Sciex API4000 triple quadrupole mass spectrometer for 3000 ms at a flow rate of 1.25 ml/min.
MRM transitions for substrate and product were monitored in positive ESI mode at m/z=562.3/969.7 and m/z=562.8/541.3 respectively. The dwell time for each transition was set at 100 ms, and the ESI voltage was used at 5500 with a source temperature of 650° C. Extracted ion peaks for each transition were integrated using the Rapid Fire Integrator software.
Compounds having an activity designated as “A” provided an IC50≤10 nM; compounds having an activity designated as “B” provided an IC50 11-100 nM; compounds having an activity designated as “C” provided an IC50 101-500 nM; compounds having an activity designated as “D” provided an IC50 501-1000 nM; compounds having an activity designated as “E” provided an IC50>1000 nM.

Sequence of hPAD4 enzyme (Q9UM07 whole entry): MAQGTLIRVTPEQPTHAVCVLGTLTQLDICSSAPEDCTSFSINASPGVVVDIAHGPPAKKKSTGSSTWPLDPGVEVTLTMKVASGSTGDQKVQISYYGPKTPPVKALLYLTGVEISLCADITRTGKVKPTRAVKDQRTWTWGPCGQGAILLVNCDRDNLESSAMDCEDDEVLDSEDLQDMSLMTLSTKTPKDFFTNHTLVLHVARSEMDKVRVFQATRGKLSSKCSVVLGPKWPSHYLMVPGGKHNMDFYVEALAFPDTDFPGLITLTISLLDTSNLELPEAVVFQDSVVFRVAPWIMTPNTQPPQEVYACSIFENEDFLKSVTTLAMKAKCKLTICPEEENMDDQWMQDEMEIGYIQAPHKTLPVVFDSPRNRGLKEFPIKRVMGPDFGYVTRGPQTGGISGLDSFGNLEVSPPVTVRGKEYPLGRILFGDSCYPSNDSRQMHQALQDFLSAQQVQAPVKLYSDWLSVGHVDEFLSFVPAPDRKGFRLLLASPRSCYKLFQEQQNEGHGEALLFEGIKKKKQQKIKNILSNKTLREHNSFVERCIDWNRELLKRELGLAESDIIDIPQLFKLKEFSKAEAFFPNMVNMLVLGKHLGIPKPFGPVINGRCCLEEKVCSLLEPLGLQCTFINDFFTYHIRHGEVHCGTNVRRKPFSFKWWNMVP

In the case of `COc1cccc2cc(-c3nc4cc5c(cc4n3C)CCN(C[C@H](N)CF)C5=O)n(CC(C)OC)c12` (single isomer, unassigned) [Example 130], the IC50 is reported as 0.101 to 0.5 µM.

`COc1cccc2cc(-c3nc4cc5c(cc4n3C)CCN(C[C@H](N)CF)C5=O)n(Cc3cc[nH]n3)c12` [Example 115, (S)-2-(1-((1H-pyrazol-3-yl)methyl)-7-methoxy-1H-indol-2-yl)-6-(2-amino-3-fluoropropyl)-1-methyl-1,6,7,8-tetrahydro-5H-imidazo[4,5-g]isoquinolin-5-one] was tested, and the IC50 was 0.101 to 0.5 µM.

`Cc1ccc2cc(-c3nc4cc5c(cc4n3C)CCN(C[C@@H](C)N)C5=O)n(CC3CCC3)c2c1` [Example 83] showed an IC50 of 0.101 to 0.5 µM.

`CCCN[C@H](C)CN1CCc2cc3c(cc2C1=O)nc(-c1cc2ccccc2n1CC1CC1)n3C` [Example 4, (R)-2-(1-(cyclopropylmethyl)-1H-indol-2-yl)-1-methyl-6-(2-(propylamino)propyl)-1,6,7,8-tetrahydro-5H-imidazo[4,5-g]isoquinolin-5-one] was tested, and the IC50 was greater than 1 µM.

For `Cn1c(-c2cc3ccc(C(=O)O)cc3n2CC2CC2)nc2cc3c(cc21)CCN(C[C@H](N)CF)C3=O` [Example 67, (S)-2-(6-(2-amino-3-fluoropropyl)-1-methyl-5-oxo-5,6,7,8-tetrahydro-1H-imidazo[4,5-g]isoquinolin-2-yl)-1-(cyclopropylmethyl)-1H-indole-6-carboxylic acid], the IC50 was greater than 1 µM.

Work on `Cn1c(-c2cc3cccc(OCCC4CNC(=O)C4)c3n2CC2CC2)nc2cc3c(cc21)CCN(C[C@H](N)CF)C3=O` (single isomer, unassigned) [Example 179] yielded an IC50 of 0.101 to 0.5 µM.

For `COc1cccc2cc(-c3nc4cc5c(cc4n3C)CCN(C[C@H](N)CF)C5=O)n(C[C@H]3CCCO3)c12` [Example 132, 6-((S)-2-amino-3-fluoropropyl)-2-(7-methoxy-1-(((R)-tetrahydrofuran-2-yl)methyl)-1H-indol-2-yl)-1-methyl-1,6,7,8-tetrahydro-5H-imidazo[4,5-g]isoquinolin-5-one], the IC50 was 0.101 to 0.5 µM.

For `COCCn1c(-c2nc3cc4c(cc3n2C)CCN(C[C@H](N)CF)C4=O)cc2ccccc21` [Example 94, (S)-6-(2-amino-3-fluoropropyl)-2-(1-(2-methoxyethyl)-1H-indol-2-yl)-1-methyl-1,6,7,8-tetrahydro-5H-imidazo[4,5-g]isoquinolin-5-one], the IC50 was 0.501 to 1 µM.

With `CN(C)CCOc1cccc2cc(-c3nc4cc5c(cc4n3C)CCN(C[C@H](N)CF)C5=O)n(CC3CC3)c12` [Example 154, (S)-6-(2-amino-3-fluoropropyl)-2-(1-(cyclopropyl-methyl)-7-(2-(dimethylamino)ethoxy)-1H-indol-2-yl)-1-methyl-1,6,7,8-tetrahydro-5H-imidazo[4,5-g] isoquinolin-5-one] the IC50 was greater than 1 µM.

`COCC(C)c1ccc2cc(-c3nc4cc5c(cc4n3C)CCN(C[C@@H](C)N)C5=O)n(CC3CC3)c2c1` (single isomer, unassigned) [Example 40] showed an IC50 greater than 1 µM.

`C[C@@H](N)CN1CCc2cc3c(cc2C1=O)nc(-c1cc2ccc(C4COC4)cc2n1CC1CC1)n3C` [Example 42, (R)-6-(2-aminopropyl)-2-(1-(cyclopropylmethyl)-6-(oxetan-3-yl)-1H-indol-2-yl)-1-methyl-1,6,7,8-tetrahydro-5H-imidazo[4,5-g]isoquinolin-5-one] showed an IC50 of 0.501 to 1 µM.

With `COCCn1c(-c2nc3cc4c(cc3n2C)CCN(C[C@H](N)CF)C4=O)cc2ccnc(OC)c21` [Example 110, (S)-6-(2-amino-3-fluoropropyl)-2-(7-methoxy-1-(2-methoxyethyl)-1H-pyrrolo[2,3-c]pyridin-2-yl)-1-methyl-1,6,7,8-tetrahydro-5H-imidazo[4,5-g]isoquinolin-5-one] the IC50 was greater than 1 µM.

`C[C@@H](N)CN1CCc2cc3c(cc2C1=O)nc(-c1cc2ccccc2n1Cc1cccnc1)n3C` [Example 80, (R)-6-(2-aminopropyl)-1-methyl-2-(1-(pyridin-3-ylmethyl)-1H-indol-2-yl)-1,6,7,8-tetrahydro-5H-imidazo[4,5-g]isoquinolin-5-one] showed an IC50 of 0.101 to 0.5 µM.

In the case of `Cn1c(-c2cc3cccc(OCCC4CNC(=O)C4)c3n2CC2CC2)nc2cc3c(cc21)CCN(C[C@H](N)CF)C3=O` (single isomer, unassigned) [Example 178], the IC50 is reported as 0.101 to 0.5 µM.

Work on `Cn1c(-c2cc3cccnc3n2Cc2ccno2)nc2cc3c(cc21)CCN(C[C@H](N)CF)C3=O` [Example 121, (S)-6-(2-amino-3-fluoropropyl)-2-(1-(isoxazol-5-ylmethyl)-1H-pyrrolo[2,3-b]pyridin-2-yl)-1-methyl-1,6,7,8-tetrahydro-5H-imidazo[4,5-g]isoquinolin-5-one] yielded an IC50 greater than 1 µM.

Compound `COc1cccc2cc(-c3nc4cc5c(cc4n3C)CCN(C[C@H](N)CF)C5=O)n(Cc3ccnnc3)c12` [Example 144, (S)-6-(2-amino-3-fluoropropyl)-2-(7-methoxy-1-(pyridazin-4-ylmethyl)-1H-indol-2-yl)-1-methyl-1,6,7,8-tetrahydro-5H-imidazo[4,5-g]isoquinolin-5-one] has an IC50 of 0.101 to 0.5 µM.

`COC(=O)N[C@H](C)COc1cccc2cc(-c3nc4cc5c(cc4n3C)CCN(C[C@H](N)CF)C5=O)n(CC3CC3)c12` [Example 209, methyl ((R)-1-((2-(6-((S)-2-amino-3-fluoropropyl)-1-methyl-5-oxo-5,6,7,8-tetrahydro-1H-imidazo[4,5-g]isoquinolin-2-yl)-1-(cyclopropylmethyl)-1H-indol-7-yl)oxy)propan-2-yl) carbamate] gave an IC50 of 0.501 to 1 µM.

For `C[C@@H](N)CN1CCc2cc3c(cc2C1=O)nc(-c1cc2cccc(F)c2n1CC1CC1)n3C` [Example 30, (R)-6-(2-aminopropyl)-2-(1-(cyclopropylmethyl)-7-fluoro-1H-indol-2-yl)-1-methyl-1,6,7,8-tetrahydro-5H-imidazo[4,5-g]isoquinolin-5-one], the IC50 was 0.101 to 0.5 µM.

`COCCOc1cccc2cc(-c3nc4cc5c(cc4n3C)CCN(C[C@H](N)CF)C5=O)n(CC3CC3)c12` [Example 153, (S)-6-(2-amino-3-fluoropropyl)-2-(1-(cyclopropyl-methyl)-7-(2-methoxyethoxy)-1H-indol-2-yl)-1-methyl-1,6,7,8-tetrahydro-5H-imidazo[4,5-g] isoquinolin-5-one] showed an IC50 of 0.101 to 0.5 µM.

`Cn1c(-c2cc3cccc(OCCN4CCOCC4)c3n2CC2CC2)nc2cc3c(cc21)CCN(C[C@H](N)CF)C3=O` [Example 158, (S)-6-(2-amino-3-fluoropropyl)-2-(1-(cyclopropyl-methyl)-7-(2-morpholinoethoxy)-1H-indol-2-yl)-1-methyl-1,6,7,8-tetrahydro-5H-imidazo[4,5-g] isoquinolin-5-one] was tested, and the IC50 was 0.501 to 1 µM.

With `Cc1ccc2c(c1)cc(-c1nc3cc4c(cc3n1C)CCN(C[C@@H](C)N)C4=O)n2CC1CC1` [Example 26, (R)-6-(2-aminopropyl)-2-(1-(cyclopropylmethyl)-5-methyl-1H-indol-2-yl)-1-methyl-1,6,7,8-tetrahydro-5H-imidazo[4,5-g]isoquinolin-5-one] the IC50 was greater than 1 µM.

`C[C@@H](N)CN1CCc2cc3c(cc2C1=O)nc(-c1cc2ccccc2n1Cc1ccncc1)n3C` [Example 81, (R)-6-(2-aminopropyl)-1-methyl-2-(1-(pyridin-4-ylmethyl)-1H-indol-2-yl)-1,6,7,8-tetrahydro-5H-imidazo[4,5-g]isoquinolin-5-one] showed an IC50 greater than 1 µM.

In the case of `Cn1c(-c2cc3cccc(OC[C@@H]4COCCN4)c3n2CC2CC2)nc2cc3c(cc21)CCN(C[C@H](N)CF)C3=O` [Example 187, 6-((S)-2-amino-3-fluoropropyl)-2-(1-(cyclopropylmethyl)-7-(((S)-morpholin-3-yl)methoxy)-1H-indol-2-yl)-1-methyl-1,6,7,8-tetrahydro-5H-imidazo[4,5-g]isoquinolin-5-one], the IC50 is reported as greater than 1 µM.

Compound `COc1cccc2cc(-c3nc4cc5c(cc4n3C)CCN(C[C@H](N)CF)C5=O)n(Cc3cc(Cl)no3)c12` [Example 136, (S)-6-(2-amino-3-fluoropropyl)-2-(1-((3-chloroisoxazol-5-yl)methyl)-7-methoxy-1H-indol-2-yl)-1-methyl-1,6,7,8-tetrahydro-5H-imidazo[4,5-g]isoquinolin-5-one] has an IC50 of 0.101 to 0.5 µM.

In the case of `C[C@@H](N)CN1CCc2cc3c(cc2C1=O)nc(-c1cc2ccc(Cl)cc2n1CC1CC1)n3C` [Example 25, (R)-6-(2-aminopropyl)-2-(6-chloro-1-(cyclopropylmethyl)-1H-indol-2-yl)-1-methyl-1,6,7,8-tetrahydro-5H-imidazo[4,5-g]isoquinolin-5-one], the IC50 is reported as 0.101 to 0.5 µM.

For `CN(C)C(=O)c1ccc2cc(-c3nc4cc5c(cc4n3C)CCN(C[C@H](N)CF)C5=O)n(CC3CC3)c2n1` [Example 64, (S)-2-(6-(2-amino-3-fluoropropyl)-1-methyl-5-oxo-5,6,7,8-tetrahydro-1H-imidazo[4,5-g]isoquinolin-2-yl)-1-(cyclopropylmethyl)-N,N-dimethyl-1H-pyrrolo[2,3-b]pyridine-6-carboxamide], the IC50 was 0.501 to 1 µM.
